{
  "source": "patent US20130085109A1",
  "about": "“METHODS OF CARDIOVASCULAR PATIENT TREATMENT USING SUBSTANCES SUFFICIENT TO REDUCE ACTIN DEPOLYMERIZATION” (priority 2008, published 2013)",
  "key": {"[1]": {"tested_on": "porcine femoral artery preparation", "test": "NO metabolite (nitrite) production in perfused porcine femoral artery preparation, forward and reverse flow", "conditions": "tempol added to perfusate", "method": "A purfusate was passed through an in vitro porcine femoral artery preparation in the forward and reverse flow directions and the levels of NO metabolite (nitrite) were measured at various flowrates in the forward and reverse directions. Thereafter, tempol was added to the perfusate and the levels of NO metabolite (nitrite) were again measured at various flowrates in the forward and reverse directions. […] The asterisk denotes statistical significance by ANOVA analysis between groups at the respective flows (P<0.05)."}, "[2]": {"tested_on": "carotid artery rings (endothelial cells)", "test": "Superoxide measurement (L012 luminescence) in carotid artery rings treated in vitro", "format": "cell-based, swine", "conditions": "for increase of superoxide production vs untreated samples: artery samples under normal forward flow", "method": "For superoxide measurements, carotid arteries (vessel segments 104) from both sides were quickly removed and placed into a heated (37° C.) chamber filled with HEPES buffered PSS containing (in mM): D-glucose, 5.5; KCl, 4.7; NaCl, 142; HEPES sodium salt, 2.7; MgSO4, 1.17; CaCl2, 2.79; at pH 7.4. For NADPH oxidase activity assays or protein expression measurements by western blot, the left and right carotid arteries were removed and saved in a −80° C. freezer until analysis.\nThe harvested vessels (vessel segments 104) were cut into small rings at approximately 3 mm in length in 37° C. HEPES PSS buffer. The rings were first transferred into […] with HEPES-PSS and incubated at 37° C. for 5 minutes. Various compounds [cytochalason D, latrunculin B, jasplakinolide, and phorbol 2-myrisate 13-acetate (PMA)] were then added into each well for treatment. The L012 (100 μM) was added last and the luminescence was recorded for 60 minutes at 1 minute intervals using a plate reader from Perkin Elmer (En vision Xcite Multilabel Reader, Perkin Elmer, Shelton, Conn.) at ultra-luminecent mode. The total reaction volume was 200 μl. After each recording, the sample rings were air dried and weighed. Each condition was tested in triplicate. To remove the endothelial cells, the vessel ring was gently rubbed against the tip of a pair of forceps.\nBasal superoxide production was detected in the carotid artery (vessel segment 104) samples obtained from control animals with forward blood flow as shown in FIG. 2A. Rings were incubated with or without treatments of cytochalasin D (cyt D), latrunculin (Latru) or jasplakinolide (Jasp) and the superoxide production were recorded using plate reader at ultrasensitive mode for luminescence to generate the results shown in FIG. 2A. The luminescence recorded from rings without treatment was considered at base level and taken as 100%. The luminescence recorded under other conditions was expressed as percentage of base level. The superoxide production induced by PMA was used as positive control as identified in FIG. 2B. Each condition was tested in triplicate from each animal. The significance of increased superoxide production was test using ANOVA (p=0.004 for cytochalasin D, n=10 and p=0.044 for Latrucillin, n=3), and the data are mean±1SD."}, "[3]": {"tested_on": "carotid artery wall", "test": "Superoxide in carotid artery wall by dihydroethidine fluorescence (laser confocal microscopy) after flow reversal", "format": "in vivo", "conditions": "apocynin 1 mM in drinking water concurrently with carotid flow reversal; vs flow reversal without apocynin", "method": "The carotid arteries of animals were removed and examined by laser confocal microscopy excitation (514 nm; emission, 605 nm; Objective, 40x. C.3.a. Visualization of NO and O2-Using Fluorescence) following perfusion under conditions of: Control (C), Flow Reversal (FR), and Apocynin+Flow Reversal (AC). The apocynin was administered in drinking water (1 mM) to an animal concurrently with carotid flow reversal. Dihydroethidine (DHE), a fluorescent dye, was used to indicate superoxide in arterial wall."}, "[4]": {"tested_on": "NADPH oxidase", "test": "NADPH oxidase activity assay in subcellular membrane preparations of vessels", "format": "in vivo, swine", "conditions": "samples from animals treated with apocynin", "method": "In some experiments (n=3), the carotid arteries were treated with jasplakinolide to stablize the actin. […] The right side vessel 114 was filled with saline and served as control. The reverse or forward flows were then ensured for 2 hrs (for superoxide measurement) or 4 hrs (for NADPH oxidase measurment by western blot) after clamps 116, 118 were released. A low concentration of jasplakinolide was used, which was sufficient to stabilize actin and to avoid possible non-specific effects at high concentration. […]\nStored samples were placed in ice cold lysis buffer containing 20 mM KH2PO4, 1 mM EGTA and protease inhibitor cocktail (Sigma-Aldrich, St. Louis, Mo.) and homogenized with an electric homogenizer (Power Gen 35, Fisher Scientific) for 20 seconds each. […] The enzyme activity was determined in 200 μl assay buffer at pH7.4 containing the following (in mM): HEPES, 25; NaCl, 120; KCl, 5.9; MgSO4, 1.2; CaCl2, 1.75; glucose, 11; β-NADPH, 0.1; and L012, 0.1. The reaction started by adding 10 μL of homogenate, and the luminescence was measured every 15 seconds for 5 minutes by Perkin Elmer plate reader at ultra-sensitive mode. The protein concentration was determined by BCA kit (Bio-Rad) and the results of enzyme activity were standardized to protein level of each sample. […]"}, "[5]": {"tested_on": "carotid artery with reverse flow", "test": "Superoxide measurement (L012 luminescence) in carotid arteries after in vivo reverse flow with drug treatment", "set-up": "species or system swine", "conditions": "apocynin bolus 4 mg/kg i.v. then 3.5 μg/kg/min i.v.", "excerpt": "To create a full reverse flow, and as part of an exemplary system 100 of the present disclosure, two tubes 102, such as two pieces of silicone tubing, were inserted into the two respective ends of the isolated vessel segment 104 as shown in FIGS. 1A and 1B. In at least one embodiment, tubes 102 are configured to fit within a portion of isolated vessel segment 104, and in at least another embodiment, tubes 102 are configured so surround the ends of vessel segment and are held in place with a connector (not shown). […]\nThe harvested vessels (vessel segments 104) were cut into small rings at approximately 3 mm in length in 37° C. […] The L012 (100 μM) was added last and the luminescence was recorded for 60 minutes at 1 minute intervals using a plate reader from Perkin Elmer (En vision Xcite Multilabel Reader, Perkin Elmer, Shelton, Conn.) at ultra-luminecent mode. […]\nSamples were obtained from carotid arteries with forward (solid bar) or reverse (empty bar) flow (FF or RF, respectively) or reverse flow plus jasplakinolide (Jasp) treatment (lined bar). The basal level of superoxide measured under forward flow condition was taken as 100%, and all other measurements were expressed as percentage to the basal level. Each measurement was performed in triplicate and data were expressed as mean±1SD. […]"}, "[6]": {"tested_on": "actin in carotid artery endothelial cells", "test": "Actin immunostain (Alexa Fluor488-phalloidin) of carotid artery rings, in vitro actin depolymerization", "format": "cell-based, swine", "conditions": "10 μM cytochalasin D, 30 minutes, 37° C.", "method": "For actin staining, vessels under different conditions were cut into 4 mm rings and immediately fixed for 2 hours in 4% methanol-free formaldehyde-PBS solution (Thermo Scientific, Rockford, Ill.). For in vitro actin depolymerization immunochemistry, 3 to 4 mm carotid artery ring from control animal were incubated with 10 μM cytochalasin D for 30 minutes. Samples were fixed for 2 hours and then processed for actin staining.\nThe fixed samples were permeablized by 0.1% tritonX-PBS solution. After non-specific sites were blocked by 1% BSA in PBS, actin was labled by incubating samples with Alexa Fluor488-phalloidin (Invitrogen, Carlsbad, Calif.) for 30 minutes at room temperature. After labeling, each sample was cut into a 3×3 mm piece and mounted on glass slide and covered with a glass cover slip in the presence of 70% glyceral-PBS and sealed with glue. The samples were observed under a Zeiss confocal microscope (Zeiss 510 meta) and images were captured under 100× objective oil lens with excitation at 488 nm and emission at BP 500-530 nm.\nAll samples were viewed under confocal microscopy (Zeiss 510 meta) with 100× objective with excitation at 488 nm and Emission at BP 500-530 nm."}, "[7]": {"tested_on": "actin in carotid artery endothelial cells", "conditions": "reported previously; cited from earlier work"}, "[8]": {"tested_on": "p47phox", "test": "p47phox phosphorylation (phosphoserine immunoprecipitation and western blot), in vitro", "format": "cell-based, swine", "conditions": "cytochalasin D treatment in vitro; p<0.05", "method": "For p47^phox phosphorylation measurements, the total protein with phosphoserine was first immunoprecipitated according to a known method. Briefly, samples were first incubated with rabbit polyclonal antibody to phosphoserine (Abcam, Cambridge, Mass.) for 2 hours at 4° C. Samples were then mixed with Protein G PLUS-Agarose (Santa Cruz Biotechnology, Santa Cruz, Calif.) and incubated overnight at 4° C. Samples were then centrifuged and washed three times with lysis buffer. The pellet was resuspended in loading buffer and denatured. The p47^phox was then measured by western blot.\nP47^phox phosphorylation was examined further to understand the molecular basis for increased superoxide production subsequent to actin depolymerization and flow reversal, as shown in FIGS. 7A-7D. The phosphorylated P47^phox was standardized by total P47^phox. The level of phosphorylated P47^phox at basal level in vitro (FIG. 7A) or under forward flow (FF) condition in vivo (FIG. 7C) were taken as 100% and the level of phosphorylated P47^phox after cytochalasin D treatment or under reversed flow (RF) condition were expressed as percent thereof. […] The data are mean and SD of at least three experiments from different animals (*p<0.05)."}},
  "data": [
    {"molecule": "CC1(C)CC(O)CC(C)(C)N1[O]", "note": "[tempol, 4-hydroxy-2,2,6,6-tetramethyl-4-piperidine-N-oxyl]", "values": [
      {"measurement": "NO production (NO metabolite nitrite)", "setting": "[1]; forward flow", "result": "did not cause a statistically significant increase"},
      {"measurement": "NO production (NO metabolite nitrite)", "setting": "[1]; reverse flow, P<0.05", "result": "did significantly increase"}
    ]},
    {"molecule": "C/C1=C/C(=O)O[C@@H]2C[C@@H](CC[C@H](C)/C=C\\CC1)O[C@@](O)([C@@H]1CSC(=O)N1)C2", "note": "[latrunculin, latrunculin B]", "values": [
      {"measurement": "increase of superoxide production vs untreated samples", "setting": "[2]; 1 μM latrunculin", "result": "~2", "unit": "fold"}
    ]},
    {"molecule": "COc1cc(C(C)=O)ccc1O", "note": "[apocynin, 4-hydroxy-3-methoxy-acetophenone]", "values": [
      {"measurement": "amount of superoxide present in artery wall (DHE fluorescence)", "setting": "[3]", "result": "reduced the amount of superoxide"},
      {"measurement": "NADPH oxidase enzyme activity", "setting": "[4]", "result": "reduced"},
      {"measurement": "reversed flow induced superoxide production", "setting": "[5]", "result": "abolished"}
    ]},
    {"molecule": "C=C1[C@@H](C)[C@H]2[C@H](Cc3ccccc3)NC(=O)[C@]23[C@H](OC(C)=O)/C=C/[C@@](C)(O)C(=O)[C@@H](C)C/C=C/[C@H]3[C@@H]1O", "note": "[cytochalasin D]", "values": [
      {"measurement": "actin filament pattern", "setting": "[6]", "result": "significant disruption of actin filaments"},
      {"measurement": "cytochalasin D concentration at which all long actin filament bundles were disrupted and replaced by focal aggregates of F-actin", "setting": "[7]", "result": "≥ 2", "unit": "µM"},
      {"measurement": "cytochalasin D concentration at which changes of actin cytoskeleton were visible", "setting": "[7]", "result": 20, "unit": "nM"},
      {"measurement": "p47phox phosphorylation vs untreated sample", "setting": "[8]", "result": "increased"},
      {"measurement": "increase of superoxide production vs untreated samples", "setting": "[2]; 10 μM cytochalasin D", "result": "about 5 fold"},
      {"measurement": "superoxide production in vessel with reverse flow", "setting": "[2]; cytochalasin D added to samples from reverse flow vessel", "result": "further increase"}
    ]}
  ]
}
